# In patent publication US12207654B2, “Bactericidal agent for agricultural or horticultural use, plant disease control method, and product for plant disease control use” (Kureha Corporation, priority 2019, dated 2025):
# Several values for one entry are separate records, joined by “and”; a condition that tells them apart may be missing. Equal entries are not always repeated. Where two headings read alike, the source gives them in different places.
# What was measured:
# Microdocum nivale = assay: In vitro antimicrobial activity test on PDA plate media (colony diameter); assay type: cell-based; conditions: used alone
# [1] = test system: Alternaria alternata apple pathotype; assay: as above; assay type: cell-based; conditions: used alone
# Fusarium graminearum = assay: microbe, parasite or virus in culture; assay type: cell-based
# Penicillium italicum = assay: In vitro antimicrobial activity test on PDA plate media (colony diameter); assay type: cell-based
# Pyrenophora graminea = assay: as above; assay type: cell-based; conditions: used alone
# Gaeumannomyces graminis = assay: as above; assay type: cell-based; conditions: used alone
# Glomerella cingulata = assay: as above; assay type: cell-based
# [2] = test system: wheat leaf rust (Puccinia recondita); assay: Controlling effect test against wheat leaf rust (foliar spray on potted wheat seedlings); assay type: in vivo; conditions: sprayed alone
# Fusarium fujikuroi = assay: In vitro antimicrobial activity test on PDA plate media (colony diameter); assay type: cell-based; conditions: used alone
# Cercospora beticola = assay: In vitro antimicrobial activity test in 96-well microplate (absorbance at 620 nm); assay type: cell-based; conditions: used alone
# [3] = Colletotrichum gloeosporioides, used alone, 0.13 ppm, read-out: Actual fungal growth inhibition rate (%)
# [4] = Colletotrichum gloeosporioides, used alone, 0.50 ppm, read-out: Actual fungal growth inhibition rate (%)
# [5] = Alternaria alternata, 0.13 ppm, read-out: Actual fungal growth inhibition rate (%)
# [6] = Pyrenophora graminea, 0.13 ppm, read-out: Actual fungal growth inhibition rate (%)
# [7] = Pyrenophora graminea, 0.50 ppm, read-out: Actual fungal growth inhibition rate (%)
# [8] = Colletotrichum gloeosporioides, used alone, 0.01 ppm, read-out: Actual fungal growth inhibition rate (%)
# [9] = Fusarium graminearum, read-out: Actual fungal growth inhibition rate (%)
# [10] = Gaeumannomyces graminis, 0.13 ppm, read-out: Actual fungal growth inhibition rate (%)
# [11] = Gaeumannomyces graminis, 0.50 ppm, read-out: Actual fungal growth inhibition rate (%)
# [12] = Gaeumannomyces graminis, 0.002 ppm, read-out: Actual fungal growth inhibition rate (%)
compound,measurement,setting,value
COC(=O)C(O)(Cn1cncn1)c1ccc(Oc2ccc(C(F)(F)F)cc2)cc1Cl (stereo not drawn) [Azole derivative I-23],Actual fungal growth inhibition rate (%),Microdocum nivale; 0.01 ppm,0%
same,Actual fungal growth inhibition rate (%),Microdocum nivale; 0.13 ppm,4% and 10%
same,Actual fungal growth inhibition rate (%),Microdocum nivale; 0.50 ppm,27% and 24%
same,Actual fungal growth inhibition rate (%),[1]; 0.03 ppm,0%
same,Actual fungal growth inhibition rate (%),[1]; 0.13 ppm,0%
same,Actual fungal growth inhibition rate (%),Fusarium graminearum,79%
same,Actual fungal growth inhibition rate (%),"Penicillium italicum; used alone, 0.01 ppm",6%
same,Actual fungal growth inhibition rate (%),"Penicillium italicum; used alone, 0.03 ppm",12%
same,Actual fungal growth inhibition rate (%),"Penicillium italicum; used alone, 0.13 ppm",35%
same,Actual fungal growth inhibition rate (%),"Penicillium italicum; used alone, 0.50 ppm",52% and 43%
same,Actual fungal growth inhibition rate (%),Pyrenophora graminea; 0.08 ppm,73%
same,Actual fungal growth inhibition rate (%),Pyrenophora graminea; 0.13 ppm,81%
same,Actual fungal growth inhibition rate (%),Pyrenophora graminea; 0.31 ppm,92%
same,Actual fungal growth inhibition rate (%),Pyrenophora graminea; 0.50 ppm,91%
same,Actual fungal growth inhibition rate (%),Pyrenophora graminea; 1.25 ppm,95%
same,Actual fungal growth inhibition rate (%),Gaeumannomyces graminis; 0.01 ppm,0%
same,Actual fungal growth inhibition rate (%),Gaeumannomyces graminis; 0.03 ppm,38%
same,Actual fungal growth inhibition rate (%),Gaeumannomyces graminis; 0.08 ppm,92%
same,Actual fungal growth inhibition rate (%),Gaeumannomyces graminis; 5.00 ppm,94%
same,Actual fungal growth inhibition rate (%),"Glomerella cingulata; used alone, 0.03 ppm",9%
same,Actual fungal growth inhibition rate (%),"Glomerella cingulata; used alone, 0.13 ppm",31%
same,Actual fungal growth inhibition rate (%),"Glomerella cingulata; used alone, 0.50 ppm",61%
COC(=O)C(O)(Cn1cncn1)c1ccc(Oc2ccc(Cl)cc2)cc1C(F)(F)F (stereo not drawn) [Azole derivative I-122],Actual fungal growth inhibition rate (%),Microdocum nivale; 0.01 ppm,0%
same,Actual fungal growth inhibition rate (%),Microdocum nivale; 0.03 ppm,0%
same,Actual fungal growth inhibition rate (%),Microdocum nivale; 0.13 ppm,4%
same,Actual fungal growth inhibition rate (%),[1]; 0.13 ppm,0%
same,Actual fungal growth inhibition rate (%),[1]; 0.50 ppm,5%
same,Actual fungal growth inhibition rate (%),Fusarium graminearum,83%
same,Actual fungal growth inhibition rate (%),Pyrenophora graminea; 0.13 ppm,75%
same,Actual fungal growth inhibition rate (%),Pyrenophora graminea; 0.50 ppm,82%
same,Actual fungal growth inhibition rate (%),Gaeumannomyces graminis; 0.01 ppm,0%
same,Actual fungal growth inhibition rate (%),Gaeumannomyces graminis; 0.03 ppm,32%
same,Actual fungal growth inhibition rate (%),Gaeumannomyces graminis; 0.13 ppm,70% and 57%
same,Actual fungal growth inhibition rate (%),Gaeumannomyces graminis; 0.31 ppm,96%
same,Actual fungal growth inhibition rate (%),Gaeumannomyces graminis; 0.50 ppm,97%
same,Actual fungal growth inhibition rate (%),Gaeumannomyces graminis; 1.25 ppm,96%
same,Actual fungal growth inhibition rate (%),"Glomerella cingulata; used alone, 0.01 ppm",8%
same,Actual fungal growth inhibition rate (%),"Glomerella cingulata; used alone, 0.03 ppm",14%
same,Actual fungal growth inhibition rate (%),"Glomerella cingulata; used alone, 0.13 ppm",45%
same,Actual fungal growth inhibition rate (%),"Glomerella cingulata; used alone, 0.50 ppm",82%
"CO/C=C(/C(=O)OC)c1ccccc1Oc1cc(Oc2ccccc2C#N)ncn1 [Azoxystrobin, azoxystrobin, reference compound]",Actual controlling rate,[2]; 1.25 g/ha,47%
"Cn1cc(C(=O)Nc2ccc(F)cc2-c2ccc(Cl)c(Cl)c2)c(C(F)F)n1 [Bixafen, bixafen]",Actual fungal growth inhibition rate (%),Microdocum nivale; 0.10 ppm,0%
same,Actual fungal growth inhibition rate (%),[1]; 0.03 ppm,14%
same,Actual fungal growth inhibition rate (%),"Fusarium graminearum; used alone, 0.10 ppm",6% and 0%
same,Actual fungal growth inhibition rate (%),Fusarium fujikuroi; 0.13 ppm,13%
same,Actual fungal growth inhibition rate (%),Fusarium fujikuroi; 0.50 ppm,19%
same,Actual fungal growth inhibition rate (%),Pyrenophora graminea; 1.56 ppm,75%
"COc1ccnc(C(=O)N[C@H]2COC(=O)[C@H](Cc3ccccc3)[C@@H](OC(=O)C(C)C)[C@H](C)OC2=O)c1OCOC(=O)C(C)C [Fenpicoxamid, fenpicoxamid]",Actual growth inhibition rate,Cercospora beticola; 0.04 ppm,28%
same,Actual growth inhibition rate,Cercospora beticola; 0.2 ppm,59%
same,Actual growth inhibition rate,Cercospora beticola; 1.0 ppm,60%
same,Actual growth inhibition rate,Cercospora beticola; 5.0 ppm,100%
"O=C(NCCc1ncc(C(F)(F)F)cc1Cl)c1ccccc1C(F)(F)F [Fluopyram, fluopyram, reference compound]",inhibition at 0.03 ppm,"Fusarium fujikuroi; Fusarium fujikuroi, 0.03 ppm, read-out: Actual fungal growth inhibition rate (%)",6%
same,inhibition at 0.5 ppm,"Fusarium fujikuroi; Fusarium fujikuroi, 0.50 ppm, read-out: Actual fungal growth inhibition rate (%)",21%
same,inhibition at 0.13 ppm,Glomerella cingulata; [3],3%
same,inhibition at 0.5 ppm,Glomerella cingulata; [4],9%
"CO/N=C(/C1=NOCCO1)c1ccccc1Oc1ncnc(Oc2ccccc2Cl)c1F [Fluoxastrobin, fluoxastrobin, reference compound]",inhibition at 0.01 ppm,"Microdocum nivale; 0.01 ppm, read-out: Actual fungal growth inhibition rate (%)",96%
same,inhibition at 0.13 ppm,[1]; [5],48%
same,inhibition at 0.5 ppm,"[1]; Alternaria alternata, 0.50 ppm, read-out: Actual fungal growth inhibition rate (%)",43%
same,inhibition at 0.13 ppm,Pyrenophora graminea; [6],51%
same,inhibition at 0.5 ppm,Pyrenophora graminea; [7],55%
same,Actual fungal growth inhibition rate (%),Pyrenophora graminea; 0.13 ppm,46%
same,Actual fungal growth inhibition rate (%),Pyrenophora graminea; 0.50 ppm,59%
same,inhibition at 0.5 ppm,Glomerella cingulata; [4],48%
"Cn1cc(C(=O)Nc2ccccc2-c2cc(F)c(F)c(F)c2)c(C(F)F)n1 [Fluxapyroxad, fluxapyroxad, reference compound]",Actual fungal growth inhibition rate (%),Gaeumannomyces graminis; 0.10 ppm,0%
same,Actual fungal growth inhibition rate (%),Gaeumannomyces graminis; 1.56 ppm,0% and 9%
"CC(C)c1ccc(Cl)cc1CN(C(=O)c1c(C(F)F)nn(C)c1F)C1CC1 [Isoflucypram, isoflucypram]",Actual growth inhibition rate,Cercospora beticola; 0.008 ppm,7%
same,Actual growth inhibition rate,Cercospora beticola; 0.04 ppm,3%
same,Actual growth inhibition rate,Cercospora beticola; 0.2 ppm,0%
same,Actual growth inhibition rate,Cercospora beticola; 1.0 ppm,48%
"CC(O)(Cn1cncn1)c1ccc(Oc2ccc(Cl)cc2)cc1C(F)(F)F (stereo not drawn) [Mefentrifluconazole, mefentrifluconazole, reference compound]",Actual fungal growth inhibition rate (%),Microdocum nivale; 0.01 ppm,1%
same,Actual fungal growth inhibition rate (%),[1]; 0.50 ppm,62%
same,Actual fungal growth inhibition rate (%),Gaeumannomyces graminis; 0.002 ppm,0%
same,Actual fungal growth inhibition rate (%),Gaeumannomyces graminis; 0.01 ppm,0%
same,Actual fungal growth inhibition rate (%),Gaeumannomyces graminis; 0.03 ppm,19%
same,Actual fungal growth inhibition rate (%),"Glomerella cingulata; Glomerella cingulata, single chemical at 0.13 ppm",74%
same,Actual fungal growth inhibition rate (%),"Glomerella cingulata; used alone, 0.01 ppm",17%
same,Actual fungal growth inhibition rate (%),"Glomerella cingulata; used alone, 0.03 ppm",41%
same,Actual fungal growth inhibition rate (%),"Glomerella cingulata; used alone, 0.50 ppm",77%
"CC1(C)CCC(Cc2ccc(Cl)cc2)C1(O)Cn1cncn1 (stereo not drawn) [Metconazole, metconazole, reference compound]",inhibition at 0.001 ppm,"Glomerella cingulata; Colletotrichum gloeosporioides, used alone, 0.001 ppm, read-out: Actual fungal growth inhibition rate (%)",4%
same,inhibition at 0.003 ppm,"Glomerella cingulata; Colletotrichum gloeosporioides, used alone, 0.003 ppm, read-out: Actual fungal growth inhibition rate (%)",7%
same,inhibition at 0.01 ppm,Glomerella cingulata; [8],28%
"CC(C)CC(C)c1sccc1NC(=O)c1cn(C)nc1C(F)(F)F (stereo not drawn) [Penthiopyrad, penthiopyrad]",inhibition at 1.25 ppm,Fusarium graminearum; [9],7%
same,inhibition at 5 ppm,Fusarium graminearum; [9],22%
same,inhibition at 20 ppm,Fusarium graminearum; [9],28%
"OC(Cc1ccccc1Cl)(Cn1nc[nH]c1=S)C1(Cl)CC1 (stereo not drawn) [Prothioconazole, prothioconazole, reference compound]",inhibition at 0.13 ppm,"Microdocum nivale; 0.13 ppm, read-out: Actual fungal growth inhibition rate (%)",13%
same,inhibition at 0.13 ppm,[1]; [5],48%
same,inhibition at 0.01 ppm,Fusarium graminearum; [9],1%
same,inhibition at 0.03 ppm,Fusarium graminearum; [9],19%
same,inhibition at 0.13 ppm,"Penicillium italicum; Penicillium italicum, used alone, 0.13 ppm, read-out: Actual fungal growth inhibition rate (%)",18%
same,inhibition at 0.13 ppm,"Penicillium italicum; Penicillium italicum, single chemical at 0.13 ppm, read-out: Actual fungal growth inhibition rate (%)",19%
same,inhibition at 0.5 ppm,Pyrenophora graminea; [7],54%
same,inhibition at 0.13 ppm,Gaeumannomyces graminis; [10],0%
same,inhibition at 0.5 ppm,Gaeumannomyces graminis; [11],36%
same,inhibition at 0.01 ppm,Glomerella cingulata; [8],0%
same,inhibition at 0.03 ppm,"Glomerella cingulata; Colletotrichum gloeosporioides, used alone, 0.03 ppm, read-out: Actual fungal growth inhibition rate (%)",1%
same,inhibition at 0.13 ppm,Glomerella cingulata; [3],0%
same,inhibition at 0.5 ppm,Glomerella cingulata; [4],24%
"CON(C(=O)c1cn(C)nc1C(F)F)C(C)Cc1c(Cl)cc(Cl)cc1Cl (stereo not drawn) [Pydiflumetofen, pydiflumetofen, reference compound]",Actual controlling rate,[2]; 0.63 g/ha,11%
same,Actual controlling rate,[2]; 1.25 g/ha,44%
same,Actual controlling rate,[2]; 2.5 g/ha,44%
same,Actual controlling rate,[2]; 5 g/ha,67%
same,Actual controlling rate,[2]; 10 g/ha,83%
"CCCN(CC)CC1COC2(CCC(C(C)(C)C)CC2)O1 (stereo not drawn) [Spiroxamine, spiroxamine, reference compound]",inhibition at 0.01 ppm,"Pyrenophora graminea; Pyrenophora graminea, 0.01 ppm, read-out: Actual fungal growth inhibition rate (%)",0%
same,inhibition at 0.03 ppm,"Pyrenophora graminea; Pyrenophora graminea, 0.03 ppm, read-out: Actual fungal growth inhibition rate (%)",0%
same,inhibition at 0.002 ppm,Gaeumannomyces graminis; [12],0%
same,inhibition at 0.13 ppm,Gaeumannomyces graminis; [10],0%
"CON=C(C(=O)OC)c1ccccc1CON=C(C)c1cccc(C(F)(F)F)c1 [Trifloxystrobin, trifloxystrobin, reference compound]",inhibition at 0.03 ppm,"Microdocum nivale; 0.03 ppm, read-out: Actual fungal growth inhibition rate (%)",65%
same,inhibition at 0.13 ppm,[1]; [5],48%
same,inhibition at 0.002 ppm,"Fusarium fujikuroi; Fusarium fujikuroi, 0.002 ppm, read-out: Actual fungal growth inhibition rate (%)",0%
same,inhibition at 0.01 ppm,"Fusarium fujikuroi; Fusarium fujikuroi, 0.01 ppm, read-out: Actual fungal growth inhibition rate (%)",10%
same,inhibition at 0.5 ppm,"Penicillium italicum; Penicillium italicum, used alone, 0.50 ppm, read-out: Actual fungal growth inhibition rate (%)",90%
same,inhibition at 0.13 ppm,Pyrenophora graminea; [6],54%
same,inhibition at 0.5 ppm,Pyrenophora graminea; [7],54%
same,Actual fungal growth inhibition rate (%),Pyrenophora graminea; 0.50 ppm,55%
same,inhibition at 0.002 ppm,Gaeumannomyces graminis; [12],8%
same,inhibition at 0.03 ppm,"Gaeumannomyces graminis; Gaeumannomyces graminis, 0.03 ppm, read-out: Actual fungal growth inhibition rate (%)",5%
same,inhibition at 0.13 ppm,Gaeumannomyces graminis; [10],11%
same,inhibition at 0.5 ppm,Gaeumannomyces graminis; [11],15%
same,Actual fungal growth inhibition rate (%),Gaeumannomyces graminis; 0.50 ppm,9%
same,inhibition at 0.5 ppm,Glomerella cingulata; [4],46%
